Test results as given in patent US4308276A, “Inhibiting lipogenesis with benzoxathiincarboxamides” (Shell Oil Company, priority 1978, dated 1981).

system: swine adipose tissue; test: Inhibition of lipogenesis (uptake of radioactive carbon from glucose-U^14 C into lipid) in swine adipose tissue slices; assay type: cell-based; conditions: 100 micrograms per milliliter, 37° C., 2 hours, 5% DMSO, with insulin, triplicate
Text: The manner in which they cause this effect is not known with certainty; it is believed that they interfere with the synthesis of fatty acids in the tissues. Their effectiveness for this purpose has been ascertained by immersing samples of swine adipose tissue in a liquid medium containing radioactive glucose and the test chemical for a period of time, then isolating the lipid from the treated tissue and determining the up-take of the radioactive carbon by means of scintillation counting techniques. These tests were conducted in swine adipose tissue because in swine, the primary site of lipogenesis--i.e., fatty acid synthesis--appears to be adipose tissue.
Described in more detail, the tests were conducted according to the following general procedure.
150 milligrams of slices of swine adipose tissue were incubated at 37° C. for 2 hours with shaking in 3 milliliters of Krebs-Ringer bicarbonate solution containing one-half the normal calcium ion concentration, 60 micromoles of glucose, 0.5 micro-Curie of glucose-U^14 C, and 300 microunits of insulin, and 5% dimethyl sulfoxide (DMSO). The test compounds were added as a solution or suspension in DMSO and were present at a concentration of 100 micrograms per milliliter of the incubation mixture.
The incubation was terminated by addition of 0.25 milliliter of 1 N sulfuric acid. The resulting mixture was extracted with a total of 25 milliliters of chloroform:methanol (2:1, v/v). The extracts were washed according to Folch et al. (J. Biol. Chem., 226, 497-509, (1957)), air dried, and counted in a liquid scintillation counter with 15 milliliters of counting fluid (two parts toluene containing 0.4% w/v New England Nuclear Omnifluor: 1 part Triton X-100). The tests were conducted in triplicate and were accompanied by control tests in which all ingredients,proportions and conditions were the same except that no test compound was included. From the data obtained were calculated the percent inhibition of lipid synthesis by the test compound in each case. The data obtained from the tests are set out in Table 1, as the percent inhibition of lipogenesis compared to the results obtained in the control tests wherein only the test compound was omitted.

Row | Structure (SMILES) | Percent Inhibition (of lipogenesis compared to control tests) [%]
1 | C=CCNC(=O)C1CSc2ccccc2O1 (centres unmarked) [Compound 1, 2,3-Dihydro-N-(2-propenyl)-1,4-benzoxathiin-2-carboxamide] | 63
2 | C=CCNC(=O)C1CSc2cc(C)ccc2O1 (centres unmarked) [Compound 2, 2,3-Dihydro-6-methyl-N-(2-propenyl)-1,4-benzoxathiin-2-carboxamide] | 63
3 | C=CCNC(=O)C1CSc2cc(Cl)ccc2O1 (centres unmarked) [Compound 3, 6-Chloro-2,3-dihydro-N-(2-propenyl)-1,4-benzoxathiin-2-carboxamide] | 54
4 | C=CCNC(=O)C1CSc2cc(C(F)(F)F)ccc2O1 (centres unmarked) [Compound 4, 6-(Trifluoromethyl)-2,3-dihydro-N-(2-propenyl)-1,4-benzoxathiin-2-carboxamide] | 30
5 | C=CCNC(=O)C1CSc2cc([N+](=O)[O-])ccc2O1 (centres unmarked) [Compound 5, 6-Nitro-2,3-dihydro-N-(2-propenyl)-1,4-benzoxathiin-2-carboxamide] | 45
6 | C=CCNC(=O)C1CSc2cc(N)ccc2O1 (centres unmarked) [Compound 6, 6-Amino-2,3-dihydro-N-(2-propenyl)-1,4-benzoxathiin-2-carboxamide] | 29
7 | C=CCNC(=O)C1CSc2cc(NS(C)(=O)=O)ccc2O1 (centres unmarked) [Compound 7, 6-Methylsulfonamido-3,4-dihydro-N-(2-propenyl)-1,4-benzoxathiin-2-carboxamide] | 46
8 | C=CCNC(=O)C1CSc2ccc(C)cc2O1 (centres unmarked) [Compound 8, 2,3-Dihydro-7-methyl-N-(2-propenyl)-1,4-benzoxathiin-2-carboxamide] | 26
